A word on the IC50: it is the midpoint of a concentration-inhibition curve.

Structures are written as SMILES. Where two headings read alike, the source gives them in different places.

The target in assay [1] is T1, KDM5B (Homo sapiens, UniProt Q9UGL1).
T1 construct: Full length of KDM5B and KDM4C protein were purchased from Active Motif; purchased Active Motif 31832
The experiment in a line: biochemical. How it is done:
(§1) KDM4C and KDM5B AlphaScreen Assay Material and Method
(§2) Compounds disclosed herein were (and can be) screened using the following assay.
Peptides used in all experiments were purchased from Anaspe. […] Final concentration of KDM5B and KDM4C used in the assay were 0.5 nM and 0.2 nM. Final concentration of peptides for 5B and 4C used in the assay were 3 nM.
(§3) 4 μL of KDM5B or KDM4C protein were added to 384-well OptiPlate by using multiflow, followed by 4 μl of either buffer or compound. Plates were sealed, spun down and incubated at RT for 15 min. 4 μl of biotinylated peptide was added to the plate, the plate was incubated at room temperature for 25 minutes (KDM5B) and 30 minutes (KDM4C) after sealed and spun down. Streptavidin donor beads and acceptor beads were diluted and mixed in the detection buffer with 7.5 mM EDTA, followed by adding 8 μl of acceptor and donor beads mix to the plate, before the plate was sealed and incubated at room temperature for 3 h or overnight at dark. The plate was read on Envision plate reader (PerkinElmer) using Alphascreen protocol. IC50s were calculated in GraphPad Prism 6.

Assay [2] has as its target T2, KDM4C (Homo sapiens, UniProt Q9H3R0).
T2 construct: Full length of KDM5B and KDM4C protein were purchased from Active Motif; purchased Active Motif 31858
T2 sequence (Q9H3R0 1-1056): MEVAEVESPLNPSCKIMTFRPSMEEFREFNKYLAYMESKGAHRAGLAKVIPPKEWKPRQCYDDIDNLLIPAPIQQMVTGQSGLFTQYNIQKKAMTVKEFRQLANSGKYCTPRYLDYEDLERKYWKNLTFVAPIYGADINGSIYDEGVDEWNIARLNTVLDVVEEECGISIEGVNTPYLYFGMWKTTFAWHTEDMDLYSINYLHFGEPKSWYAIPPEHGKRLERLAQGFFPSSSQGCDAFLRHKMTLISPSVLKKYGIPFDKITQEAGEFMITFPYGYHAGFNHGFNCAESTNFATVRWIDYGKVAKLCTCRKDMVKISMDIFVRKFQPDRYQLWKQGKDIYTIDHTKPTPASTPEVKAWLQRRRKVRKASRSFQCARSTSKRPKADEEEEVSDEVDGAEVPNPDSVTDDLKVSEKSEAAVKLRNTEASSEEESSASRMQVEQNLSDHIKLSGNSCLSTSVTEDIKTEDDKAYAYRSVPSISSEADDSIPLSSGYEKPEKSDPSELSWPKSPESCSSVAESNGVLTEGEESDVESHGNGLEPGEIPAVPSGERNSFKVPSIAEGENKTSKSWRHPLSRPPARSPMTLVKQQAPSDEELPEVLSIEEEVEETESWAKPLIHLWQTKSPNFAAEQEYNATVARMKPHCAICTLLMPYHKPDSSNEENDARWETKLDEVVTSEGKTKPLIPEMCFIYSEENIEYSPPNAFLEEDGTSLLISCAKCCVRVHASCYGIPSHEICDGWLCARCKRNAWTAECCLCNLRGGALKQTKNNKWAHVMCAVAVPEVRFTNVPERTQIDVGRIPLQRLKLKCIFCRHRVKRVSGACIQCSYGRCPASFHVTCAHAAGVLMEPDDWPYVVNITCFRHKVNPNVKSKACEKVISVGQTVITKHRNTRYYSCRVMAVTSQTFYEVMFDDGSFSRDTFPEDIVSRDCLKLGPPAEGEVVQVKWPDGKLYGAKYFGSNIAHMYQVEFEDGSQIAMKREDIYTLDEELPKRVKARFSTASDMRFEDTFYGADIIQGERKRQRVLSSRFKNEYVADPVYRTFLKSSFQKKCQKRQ
The assay is described as follows: KDM4C AlphaScreen assay. The assay is classed as biochemical. The following applies: AlphaScreen; full length KDM4C 0.2 nM; biotinylated H3K9Me3 peptide 3 nM; 30 minutes at room temperature. How it is done: as §1, §2
Peptides used in all experiments were purchased from Anaspe. Full length of KDM5B and KDM4C protein were purchased from Active Motif: KDM5B (cat#31832) and KDM4C (Cat #31858). Final concentration of KDM5B and KDM4C used in the assay were 0.5 nM and 0.2 nM. Final concentration of peptides for 5B and 4C used in the assay were 3 nM.
as §3, with “AlphaScreen assays was conducted as following protocol: buffer used to make compound plate or DMSO is composed of 50 mM HEPES pH 7.4, 0.003% Tween-20; buffer used to dilute enzyme is composed of 50 mM HEPES pH 7.4, 0.003% Tween-20, 0.01% BSA, 500 μM TCEP; and buffer used to dilute the substrate is composed of 50 mM HEPES pH 7.4, 0.003% Tween-20, (NH4)2Fe(SO4)2 15 μM, alpha-ketoglutaric acid 4 μM and L-ascorbic acid 100 μM. 4 μL” for “4 μL”
On the technique in general: In Alpha technology, singlet oxygen from a donor bead excites a nearby acceptor bead.

Where [3] appears, read: AlphaScreen, full length KDM5B 0.5 nM, biotinylated H3K4Me3 peptide 3 nM, 25 minutes at room temperature, read-out: KDM5B (IC50).

T1 sequence (Q9UGL1 whole entry): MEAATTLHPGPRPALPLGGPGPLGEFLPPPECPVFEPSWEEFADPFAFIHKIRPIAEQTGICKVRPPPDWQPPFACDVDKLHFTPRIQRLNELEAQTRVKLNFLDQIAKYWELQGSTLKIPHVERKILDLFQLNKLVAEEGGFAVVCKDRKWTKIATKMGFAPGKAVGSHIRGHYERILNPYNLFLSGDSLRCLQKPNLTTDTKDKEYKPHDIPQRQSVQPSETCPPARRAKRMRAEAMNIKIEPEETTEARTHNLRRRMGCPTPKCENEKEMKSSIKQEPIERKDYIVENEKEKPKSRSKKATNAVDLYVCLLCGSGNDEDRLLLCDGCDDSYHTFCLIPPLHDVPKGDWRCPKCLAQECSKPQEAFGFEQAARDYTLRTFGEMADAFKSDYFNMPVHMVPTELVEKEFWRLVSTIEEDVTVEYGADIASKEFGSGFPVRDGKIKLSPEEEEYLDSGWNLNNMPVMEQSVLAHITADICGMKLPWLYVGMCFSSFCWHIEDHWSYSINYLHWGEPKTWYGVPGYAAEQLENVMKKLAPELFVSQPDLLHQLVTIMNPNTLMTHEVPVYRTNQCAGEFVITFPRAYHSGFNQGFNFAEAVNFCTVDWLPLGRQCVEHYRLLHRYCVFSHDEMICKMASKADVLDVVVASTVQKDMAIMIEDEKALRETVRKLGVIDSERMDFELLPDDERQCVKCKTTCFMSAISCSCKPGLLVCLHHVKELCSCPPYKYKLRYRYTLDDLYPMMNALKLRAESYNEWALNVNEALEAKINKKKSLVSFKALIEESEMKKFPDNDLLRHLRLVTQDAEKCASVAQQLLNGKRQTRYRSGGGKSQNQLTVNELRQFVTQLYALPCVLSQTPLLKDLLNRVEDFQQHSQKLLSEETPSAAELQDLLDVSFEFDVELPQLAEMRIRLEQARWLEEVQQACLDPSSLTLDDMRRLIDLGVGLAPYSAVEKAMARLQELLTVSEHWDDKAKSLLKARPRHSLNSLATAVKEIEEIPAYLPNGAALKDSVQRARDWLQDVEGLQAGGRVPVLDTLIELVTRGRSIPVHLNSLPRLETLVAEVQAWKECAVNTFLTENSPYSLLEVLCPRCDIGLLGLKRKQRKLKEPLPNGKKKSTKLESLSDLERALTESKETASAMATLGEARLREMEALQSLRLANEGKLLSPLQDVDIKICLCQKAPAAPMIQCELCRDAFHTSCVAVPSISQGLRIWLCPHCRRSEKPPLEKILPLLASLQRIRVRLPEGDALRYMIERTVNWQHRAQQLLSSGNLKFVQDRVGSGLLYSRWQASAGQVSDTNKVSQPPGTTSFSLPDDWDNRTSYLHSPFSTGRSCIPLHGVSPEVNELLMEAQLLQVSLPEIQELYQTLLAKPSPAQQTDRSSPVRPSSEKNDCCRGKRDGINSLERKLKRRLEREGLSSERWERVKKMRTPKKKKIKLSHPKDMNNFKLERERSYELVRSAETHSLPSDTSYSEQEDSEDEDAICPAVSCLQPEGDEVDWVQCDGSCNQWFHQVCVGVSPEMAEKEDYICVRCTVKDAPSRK

As to `CC(C)c1c(O)nc(-n2ccnc2)nc1-c1cnn(Cc2ccncc2)c1` [Example 53, 2-(1H-Imidazol-1-yl)-5-(propan-2-yl)-6-[1-(pyridin-4-ylmethyl)-1H-pyrazol-4-yl]-pyrimidin-4-ol], the concentration for half-maximal inhibition (IC50) in assay [1] came out at 15 nM; in assay [2] it was 1740 nM.
For `Cc1ccc(-c2nc(-n3ccnc3)nc(O)c2C(C)C)cc1N` [Example 54, 6-(3-Amino-4-methylphenyl)-2-(1H-imidazol-1-yl)-5-(propan-2-yl)pyrimidin-4-ol] the same measures were 15 nM and 896 nM.
On to `CC(C)c1c(O)nc(-n2ccnc2)nc1-c1cnn(C)c1` [Example 55, 2-(1H-Imidazol-1-yl)-6-(1-methyl-1H-pyrazol-4-yl)-5-(propan-2-yl)pyrimidin-4-ol], for which the IC50 in assay [1] is 15 nM; in assay [2], 1340 nM.
The matching figures for `CCCn1cc(-c2nc(-n3ccnc3)nc(O)c2C(C)C)cn1` [Example 56, 2-(1H-Imidazol-1-yl)-5-(propan-2-yl)-6-(1-propyl-1H-pyrazol-4-yl)pyrimidin-4-ol]: 15 nM and 996 nM.
For `CNC(=O)c1cccc(-c2nc(-n3ccnc3)nc(O)c2C(C)C)c1` [Example 57, 3-[6-Hydroxy-2-(1H-imidazol-1-yl)-5-(propan-2-yl)pyrimidin-4-yl]-N-methyl-benzamide] the same measures were 16 nM and 2030 nM.
The matching figures for `CC(C)c1c(O)nc(-n2ccnc2)nc1-c1ccc(CO)cc1` [Example 58, 6-[4-(Hydroxymethyl)-phenyl]-2-(1H-imidazol-1-yl)-5-(propan-2-yl)pyrimidin-4-ol]: 16 nM and 1220 nM.
Turning to `CC(C)c1c(O)nc(-n2ccnc2)nc1-c1cnn(C2CCOCC2)c1` [Example 59, 2-(1H-Imidazol-1-yl)-6-[1-(oxan-4-yl)-1H-pyrazol-4-yl]-5-(propan-2-yl)pyrimidin-4-ol], the IC50 in assay [1] came out at 16 nM; in assay [2], 746 nM.
For the molecule `Cc1n[nH]cc1-c1nc(-n2ccnc2)nc(O)c1C(C)C` [Example 60, 2-(1H-Imidazol-1-yl)-6-(5-methyl-1H-pyrazol-4-yl)-5-(propan-2-yl)pyrimidin-4-ol], the concentration for half-maximal inhibition (IC50) was determined as 17 nM in assay [1] (setting [3]) and 1660 nM in assay [2].
The matching figures for `CC(C)c1c(O)nc(-n2ccnc2)nc1-c1ccc(S(=O)(=O)N(C)C)cc1` [Example 61, 4-[6-Hydroxy-2-(1H-imidazol-1-yl)-5-(propan-2-yl)pyrimidin-4-yl]-N,N-dimethylbenzene-1-sulfonamide]: 17 nM and 1480 nM.
As for `CC(C)c1c(O)nc(-n2ccnc2)nc1-c1cnn(Cc2ccccc2)c1` [Example 63, 6-(1-Benzyl-1H-pyrazol-4-yl)-2-(1H-imidazol-1-yl)-5-(propan-2-yl)pyrimidin-4-ol], the half-inhibitory concentration (IC50) in assay [1] was determined as 18 nM; in assay [2] it was 1540 nM.
On to `CC(C)c1c(O)nc(-n2ccnc2)nc1-c1cnn(Cc2ccccn2)c1` [Example 64, 2-(1H-Imidazol-1-yl)-5-(propan-2-yl)-6-[1-(pyridin-2-ylmethyl)-1H-pyrazol-4-yl]-pyrimidin-4-ol], for which the half-inhibitory concentration (IC50) turned out to be 19 nM in assay [1] (setting [3]) and 2010 nM in assay [2].
As for `CC(C)Cn1cc(-c2nc(-n3ccnc3)nc(O)c2C(C)C)cn1` [Example 65, 2-(1H-Imidazol-1-yl)-6-[1-(2-methylpropyl)-1H-pyrazol-4-yl]-5-(propan-2-yl)pyrimidin-4-ol], the IC50 in assay [1] worked out at 19 nM; in assay [2], 937 nM.
As for `CCn1cc(-c2nc(-n3ccnc3)nc(O)c2C(C)C)cn1` [Example 66, 6-(1-Ethyl-1H-pyrazol-4-yl)-2-(1H-imidazol-1-yl)-5-(propan-2-yl)pyrimidin-4-ol], the half-inhibitory concentration (IC50) in assay [1] is 19 nM; in assay [2] it was 1180 nM.
Regarding `CC(C)c1c(O)nc(-n2ccnc2)nc1-c1cnn(C2CCCC2)c1` [Example 67, 6-(1-Cyclopentyl-1H-pyrazol-4-yl)-2-(1H-imidazol-1-yl)-5-(propan-2-yl)pyrimidin-4-ol], the half-maximal inhibitory concentration (IC50) in assay [1] turned out to be 19 nM; in assay [2], 1340 nM.
For `CC(C)c1c(O)nc(-n2ccnc2)nc1-c1cnn(CCN2CCOCC2)c1` [Example 68, 2-(1H-Imidazol-1-yl)-6-{1-[2-(morpholin-4-yl)ethyl]-1H-pyrazol-4-yl}-5-(propan-2-yl)pyrimidin-4-ol] the same measures were 21 nM and 2450 nM.
For `CC(C)c1c(O)nc(-n2ccnc2)nc1-c1ccc(S(C)(=O)=O)cc1` [Example 69, 2-(1H-Imidazol-1-yl)-6-(4-methanesulfonylphenyl)-5-(propan-2-yl)pyrimidin-4-ol] the same measures were 22 nM and 2060 nM.
For `CC(C)c1c(O)nc(-n2ccnc2)nc1-c1cccnc1` [Example 70, 2-(1H-Imidazol-1-yl)-5-(propan-2-yl)-6-(pyridin-3-yl)pyrimidin-4-ol] the same measures were 22 nM and 2660 nM.
As for `CC(C)c1c(O)nc(-n2ccnc2)nc1-c1cnn(-c2ccccc2)c1` [Example 71, 2-(1H-Imidazol-1-yl)-6-(1-phenyl-1H-pyrazol-4-yl)-5-(propan-2-yl)pyrimidin-4-ol], the values for the IC50 in assay [1] and in assay [2] were 24 nM and 1560 nM, respectively.
For the molecule `CC(C)c1c(O)nc(-n2ccnc2)nc1-c1cccc(S(C)(=O)=O)c1` [Example 72, 2-(1H-Imidazol-1-yl)-6-(3-methanesulfonylphenyl)-5-(propan-2-yl)pyrimidin-4-ol], the IC50 in assay [1] (setting [3]) stood at 24 nM; in assay [2], 4470 nM.
As for `CC(C)CCn1cc(-c2nc(-n3ccnc3)nc(O)c2C(C)C)cn1` [Example 73, 2-(1H-Imidazol-1-yl)-6-[1-(3-methylbutyl)-1H-pyrazol-4-yl]-5-(propan-2-yl)pyrimidin-4-ol], the IC50 in assay [1] was found to be 25 nM; in assay [2], 1350 nM.
In the case of `CC(C)c1c(O)nc(-n2ccnc2)nc1-c1cnn(CC(=O)N2CCCC(O)C2)c1` (centres unmarked) [Example 74, 2-{4-[6-Hydroxy-2-(1H-imidazol-1-yl)-5-(propan-2-yl)pyrimidin-4-yl]-1H-pyrazol-1-yl}-1-(3-hydroxy-piperidin-1-yl)ethan-1-one], the IC50 in assay [1] (setting [3]) was 25 nM; in assay [2] it was 1750 nM.
With `CC(C)c1c(O)nc(-n2ccnc2)nc1-c1cnn(C(C)(C)C)c1` [Example 75, 6-(1-tert-Butyl-1H-pyrazol-4-yl)-2-(1H-imidazol-1-yl)-5-(propan-2-yl)pyrimidin-4-ol], the results for the IC50 in assay [1] (setting [3]) and in assay [2] were 27 nM and 1240 nM, respectively.

The values above are taken from US20190135793A1, “HETEROCYCLIC INHIBITORS OF KDM5 FOR THE TREATMENT OF DISEASE” (Board of Regents, The University of Texas System, priority 2017, published 2019).
